In patent US5710129A, “Inhibitors of SH2-mediated processes” (Ariad Pharmaceuticals, Inc., priority 1995, dated 1998) one finds IC50 data, which are given here for one molecule.

pIC50: −log10 of the molar value. Several values for one entry are separate records, joined by “and”; a condition that tells them apart may be missing. Equal values may be shown once. Read-outs that look alike come from different tables or passages of the source. Square brackets hold non-standard residues; d marks the D form. Peptide text beside a SMILES is read from it. * marks the point of attachment. Tyr(3,5-(NO2)2) = N[C@@H](Cc1cc([N+](=O)[O-])c(O)c([N+](=O)[O-])c1)C(=O)O; Fmoc = O=C(OCC1c2ccccc2-c2ccccc21)*

Assay [1] deals with T1, pp72^syk (163-265) (Homo sapiens, UniProt P43405).
T1 construct: Assays were run in HBS using 270 nM pp72^syk (163-265)
The experiment in a line: C-Syk competitive binding assay, surface plasmon resonance (BIAcore). Particulars: 270 nM protein; hemiphosphorylated γ-chain ITAM of human FcεRI as ligand; read-out: CSyk IC-50. The protocol:
(§1) Binding was measured by competition using surface plasmon resonance (Malmqvist, M. (1993) Current Opinions in Immunology 5, 282-286) as implemented in the BIAcore Biosensor (Pharmacia Biosensor, Piscataway, N.J.). […] Results were compared to binding measured in the absence of competitor and expressed as percent inhibition. IC50values reflect the concentration of inhibitor required to reduce binding by 50%. Specifics of individual assays are described below. All asssays were run in HEPES Buffered Saline (HBS) composed of 10 mM HEPES (pH 7.4)/150 mM NaCl/3.4 mM EDTA/0.05% Surfactant P20at 25° C. and a flow rate of 5 uL min^-1.
A pp72^syk peptide ligand corresponding to a hemiphosphorylated γ-chain ITAM of human Fcε RI [DGVY(PO4)TGLSTRNQETYETLK] was synthesized as part of a larger peptide [Ac-CGGDGVY(PO4)TGLSTRNQETYETLK-NH2 ] and used to generate a C-Syk-sensitive biosensor surface as described above for tandem syk. Assays were run in HBS using 270 nM pp72^syk (163-265)±test inhibitor.
A general note: In SPR one partner is held on a chip, and binding of the other changes the refractive index at the surface.

Assay [2] concerns the target T2, pp72^syk (1-265) (Homo sapiens, UniProt P43405).
T2 construct: Assays were run in HBS using 20 nM pp72^syk (1-265)
Kind of assay: Tandem Syk competitive binding assay, surface plasmon resonance (BIAcore). Particulars: 20 nM protein; γ-chain ITAM of human FcεRI as ligand; read-out: N,CSyk IC-50. The procedure:
as §1
A pp72^syk peptide ligand corresponding to the γ-chain ITAM of human Fcε RI [DGVY(PO4)TGLSTRNQETY(PO4)ETLK] [SEQ ID NO:18] was synthesized as part of a larger peptide [Ac-CGGDGVY(PO4)TGLSTRNQETY-(PO4)ETLK-NH2] [SEQ ID NO:19] and used to generate a Syk-sensitive biosensor surface. Specifically, a Biosensor Chip CM5was activated with 200 mM ethyl-3-(3-dimethylaminopropyl)-carbodiimide hydrochloride (EDC)/50 mM N-hydroxysuccinimide (NHS) to generate a surface reactive to primary amines; treated with ethylenediamine to generate a surface rich in primary amines; activated with m-maleimidobenzoyl-N-hydroxysuccinimide ester (sulfo-MBS; 50 mM in 25 mM NaHCO3) to generate a surface reactive to free thiols; and the ITAM peptide immobilized through the N-terminal cysteine. Unreacted sites were blocked with β-mercaptoethanol and the chip cleaned of noncovalently bound peptide using 6M guanidine hydrochloride. Assays were run in HBS using 20 nM pp72^syk (1-265)±test inhibitor.

Assay [3] addresses T3, pp70^ZAP (1-259) (Homo sapiens, UniProt P43403).
T3 sequence (P43403 1-259): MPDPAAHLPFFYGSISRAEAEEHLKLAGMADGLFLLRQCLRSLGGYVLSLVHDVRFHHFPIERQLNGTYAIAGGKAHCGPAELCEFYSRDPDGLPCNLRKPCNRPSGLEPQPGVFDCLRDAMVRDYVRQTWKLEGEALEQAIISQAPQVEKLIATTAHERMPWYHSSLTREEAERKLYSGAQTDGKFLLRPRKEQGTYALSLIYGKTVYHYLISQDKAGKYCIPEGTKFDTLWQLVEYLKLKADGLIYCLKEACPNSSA
Kind of assay: Tandem ZAP competitive binding assay, surface plasmon resonance (BIAcore). Particulars: read-out: N,CZap IC-50. The procedure:
as §1
A pp70^ZAP peptide ligand corresponding to the .zeta.-chain ITAM-1 of the human T-cell receptor [NQLY(PO4)NELNIGRREEY(PO4)DVLD] [SEQ ID NO:20] was synthesized as a part of a larger peptide [Ac-KGGNQLY(PO4)NELNIGRREEY-(PO4)DVLD-NH2 ] [SEQ ID NO:21] and used to generate a ZAP-sensitive biosensor surface. Specifically, a Biosensor Chip CM5was activated with 200 mM EDC/50 mM NHS to generate a surface reactive to primary amines and the ITAM peptide immobilized through the N-terminal lysine. Unreacted sites were blocked with ethanolamine (1M in water) and the chip cleaned of non-covalently bound peptide using 6M guanidine hydrochloride. Assays were run in HBS using 10 nM pp70^ZAP (1-259)±test inhibitor. (The designation "b22" indicates use of a corresponding γ-chain ITAM for the .zeta.-chain ITAM.)

Assay [4] deals with T4, pp60^src (144-251) (Homo sapiens, UniProt P12931).
T4 construct: Assays were run in HBS using 270 nM pp60^src (144-251)
T4 sequence (P12931 144-251): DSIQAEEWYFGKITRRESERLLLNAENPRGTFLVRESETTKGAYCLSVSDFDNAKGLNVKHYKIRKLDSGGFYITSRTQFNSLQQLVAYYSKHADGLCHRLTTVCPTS
The experiment in a line: Src competitive binding assay, surface plasmon resonance (BIAcore). The conditions noted are these: 270 nM protein; hamster Middle-T antigen phosphopeptide as ligand; read-out: Src IC-50. The procedure:
as §1
A p60^src peptide ligand corresponding to the hamster Middle-T antigen [QY(PO4)EEIPI] [SEQ ID NO:22] was synthesized as a part of a larger peptide [Ac-KGGQY(PO4)EEIPI-NH2 ] [SEQ ID NO:23] and used to generate a src-sensitive biosensor surface as described above for tandem ZAP. Assays were run in HBS using 270 nM pp60^src (144-251)±test inhibitor.

On to `CC(C)C[C@H](NC(=O)[C@@H](NC(=O)[C@H](CCC(=O)O)NC(=O)[C@H](Cc1cc([N+](=O)[O-])c(O)c([N+](=O)[O-])c1)NC(=O)OCC1c2ccccc2-c2ccccc21)[C@@H](C)O)C(N)=O` [ETLNH2] (Fmoc-[Tyr(3,5-(NO2)2)]ETL-NH2), for which the pIC50 in assay [1] is 4.52; in assay [2], 4.10 and 4.09; in assay [3] (10 nM protein, ζ-chain ITAM-1 of human T-cell receptor as ligand), 3.46; in assay [3] (b22: corresponding γ-chain ITAM used for the ζ-chain ITAM), 4.70; in assay [4] it was below 3.00.
